Experimental data from patent US8540999B2, “Allergenic proteins and peptides from Japanese cedar pollen” (Merck Patent GmbH, priority 1991, dated 2013).
Entries after “also recorded” stand apart in the source; their conditions may differ. Ends that are not written are not given here.

How the values were obtained:
[1] = Solubility, single pH point protocol procedure; assay type: physicochemical; details: 100 mM sodium phosphate buffer without mannitol, constant agitation
Experimental: (§1) Additional truncation of two C-terminal residues yielded 44.2 (SEQ ID NO: ). […] Thus, 44.2 (SEQ ID NO: ) was further modified by the addition of charged (hydrophilic residues) to the N-terminus and by replacement of the hydrophobic residue Val with the less hydrophobic residue Ala. […] CJI-44.8 (SEQ ID NO: 132) was stable and soluble at greater than 5 mg/ml over the pH range pH6-pH8 in an aqueous buffer.

[2] = Solubility, pH range protocol procedure; assay type: physicochemical; details: aqueous sodium phosphate buffer, pH range pH6 to pH8
Text: (§2) Of the above group of modified peptides, several peptides have been identified as “unique” modified peptides. […] Certain modified peptides are characterized as “unique” due to the difficulties encountered when developing a modified peptide which meets all of the stringent requirements of a “unique” peptide defined herein. In many cases, multiple modifications of a parent peptide are attempted prior to identifying a modified derivitive peptide which meets all the characteristics of a “unique” modified peptide. Unique modified peptides are particularly useful as candidate peptides for formulating injectable multipeptide therapeutic formulations of the invention because “unique” modified peptides are soluble and stable in the same physiologically acceptable pH range as well as elicit the necessary T cell reactivity of a therapeutic peptide of the invention. “Unique” modified peptides of the invention include but are not limited to the following group of modified peptides: CJ1-24.5, CJ1-43.39, CJ1-43.50, CJ1-44.8, and CJ1-44.9 all as shown in FIGS. 20 and 44. Example 21 describes the development and identification of “unique” modified peptides of the invention.
as §1

[3] = Stability in aqueous buffer; assay type: physicochemical; details: pH6 to pH8
Text: as §2, §1

[4] = Solubility testing of parent and truncated peptides (protocol not stated); assay type: physicochemical
Text: For example, the amino acid sequence of CJI-44.8 (SEQ ID NO: 132) was derived from the protein sequence of Cry j I by first identifying those regions of the parent protein with high T cell reactivity using the set of overlapping peptides 20-mers as discussed in Example 6, and shown in FIG. 13, which covered the entire sequence. […] Since these peptides were adjacent to each other in the native protein sequence and overlapped by 10 residues, peptide CJI-44 was synthesized to capture the total T cell reactivity of both peptides. CJI-44 (SEQ ID NO: 90) (FIG. 18) is a peptide 30-mer which contains all of the sequence present in the two 20-mers CJI-31 (SEQ ID NO: 54) and CJI-32 (SEQ ID NO: 56).
as §1

Arthus reaction = details: Usui et al. (1990); cited from earlier work
patients' plasma IgE = assay: Direct binding assay of IgE to Cry j I, Cry j II and recombinant Cry j II (Example 18); set-up: species or system human
Experimental: Costar assay plates were coated with Cry j I or Cry j II at 2 μg/mL or recombinant Cry j II preparation at 10 μg/mL (approximately 20% pure) in a volume of 50 μL overnight at 4° C. The coating antigens were removed and the wells were blocked with 0.5% gelatin, PVP (polyvinyl pyrolidine) 1 mg/mL in PBS, 200 μL/well for 2 hours at room temperature. The anti-Cry j I monoclonal antibody, 4B11, was serially diluted in PBS-Tween 20 starting at a 1:1000 dilution. The human plasma were serially diluted in PBS-Tween at a starting dilution of 1:2. For this set 23 plasma samples from patients symptomatic for Japanese cedar pollen allergy chosen for IgE binding analysis. The first antibody incubation proceeded overnight at 4° C. Following three washes with PBS-Tween the second antibodies were added (biotinylated goat anti-mouse Ig or goat anti-human IgE both at 1:2000) and incubated for two hours at room temperature at 100 μL/well. After washing 3 times, […]. This solution was removed and streptavidin-HRPO diluted to 1:10,000, was added at 100 μL/well. The color was allowed to develop for 2-5 minutes. The reaction was stopped by the addition of 100 μL/well of 1M phosphoric acid. Plates were read on a Microplate IL310 Autoreader (Biotek Instruments, Winooski, Vt.) with a 450 nm filter. The absorbance levels of duplicate wells were averaged. A positive binding result, indicated by a plus sign is determined to be a reading of two-fold or greater above background (no first antibody) at the second dilution of plasma ([…]).

IgE antibodies = details: Sakaguchi (1990), cited from earlier work
[5] = test system: Cry j II reactive T cells; assay: T cell proliferation assay, Cry j II primed T cell lines (Example 19); assay type: cell-based, human
Experimental: Long term T cell lines were established by stimulation of 2×10^6 PBL/ml in bulk cultures of complete medium (RPMI-1640, 2 mM L-glutamine, 100 U/ml penicillin/streptomycin, 5×10^−5M 2-mercaptoethanol, and 10 mM HEPES supplemented with 5% heat inactivated human AB serum) with 10 μg/ml of partially purified native Cry j II for 7 days at 37° C. in a humidified 5% CO2 incubator to select for Cry j II reactive T cells. This amount of priming antigen was determined to be optimal for the activation of T cells from most Japanese cedar pollen Cry j II allergic patients. Viable cells were purified by LSM centrifugation and cultured in complete medium supplemented with 5 units recombinant human IL-2/ml and 5 units recombinant human IL-4/ml for up to three weeks until the cells no longer responded to lymphokines and were considered “rested”. The ability of the T cells to proliferate to peptides Cry j IIA (SEQ ID NO: 185) and Cry j IIB (SEQ ID NO: 186), recombinant Cry j II (rCry j II) (SEQ ID NO: 134), purified native Cry j II, was then assessed. For assay, 2×10^4 rested cells were restimulated in the presence of 2×10^4 autologous Epstein-Barr virus (EBV)-transformed B cells (prepared as described in Example 6) (gamma-irradiated with 25,000 RADS) with 2-50 ’g/ml of rCry j II (SEQ ID NO: 134), purified native Cry j II, peptides Cry j IIA (SEQ ID NO: 185) and Cry j IIB (SEQ ID NO: 186), positive control (PHA), negative control (Amb a I.1), in a volume of […] complete medium in duplicate or triplicate wells in 96-well round bottom plates for 2-4 days. […] Each well then received 1 μCi tritiated thymidine for 16-20 hours. The counts incorporated were collected onto glass fiber filter mats and processed for liquid scintillation counting. The maximum response in a titration of each peptide is expressed as the stimulation index (S.I.). The S.I. is the counts per minute (CPM) incorporated by cells in response to peptide, divided by the CPM incorporated by cells in medium only. A positivity index may be calculated by multiplying the mean S.I. (indicated above each bar in FIGS. 42 and 43) by the percentage of individuals responding to the peptide (indicated in parentheses above each bar in FIGS. 42 and 43). […]

For DEEGAYFVSSGKYEGGNIYTKKEAFNVE [CJ1-44.8], the solubility [1] was “very soluble”, the solubility [2] was over 5000 µg/mL and the stability [3] was “stable”.

For “DEENGAYFVSSGKYEGGNIYTKKEAFNVE [CJ1-44.6]”, the solubility [1] was “increased solubility”.

In the case of DENGAYFVSSGKYEGGNIYTKKEAFNAE [CJ1-44.5], the solubility [1] is reported as “increased solubility”.

DVFYNGAYFVSSGKYEGGNIYTKKEAFNVE [CJ1-44] gave a solubility ([4]; protocol not stated, read-out: solubility) of under 5000 µg/mL.

With NGAYFVSSGKYEGGNIYTKKEAFN [CJ1-44.2] the solubility ([4]; truncated analogs of CJI-44) was “solubility was improved in these sequences it still did not reach the standard”.

In the case of NGAYFVSSGKYEGGNIYTKKEAFNVE [CJ1-44.1], the solubility ([4]; truncated analogs of CJI-44) is reported as “solubility was improved in these sequences it still did not reach the standard”.

B1: Sugi basic protein (i.e., Cry j I)-pullulan conjugate: Sugi basic protein covalently linked to pullulan, Usui et al. (1990) (conjugate, UniProt P18632 22-374, looked up)
Pectate lyase 1: DNPIDSCWRGDSNWAQNRMKLADCAVGFGSSTMGGKGGDLYTVTNSDDDPVNPAPGTLRYGATRDRPLWIIFSGNMNIKLKMPMYIAGYKTFDGRGAQVYIGNGGPCVFIKRVSNVIIHGLYLYGCSTSVLGNVLINESFGVEPVHPQDGDALTLRTATNIWIDHNSFSNSSDGLVDVTLTSTGVTISNNLFFNHHKVMLLGHDDAYSDDKSMKVTVAFNQFGPNCGQRMPRARYGLVHVANNNYDPWTIYAIGGSSNPTILSEGNSFTAPNESYKKQVTIRIGCKTSSSCSNWVWQSTQDVFYNGAYFVSSGKYEGGNIYTKKEAFNVENGNATPQLTKNAGVLTCSLSKRC
modifications: pullulan conjugate
For B1, the “ability to elicit the Arthus reaction, relative to native Sugi basic protein” value (Arthus reaction) is listed as “about 1,000 times lower”.

B2: purified native Cry j II: second Japanese cedar pollen allergen, purified native protein (protein)
chain: RKVEHSRHDAINIFNVEKYGAVGDGKHDCTEAFSTAWQAACKNPSAMLLVPGSKKFVVNNLFFNGPCQPHFTFKVDGIIAAYQNPASWKNNRIWLQFAKLTGFTLMGKGVIDGQGKQWWAGQCKWVNGREICNDRDRPTAIKFDFSTGLIIQGLKLMNSPEFHLVFGNCEGVKIIGISITAPRDSPNTDGIDIFASKNFHLQKNTIGTGDDCVAIGTGSSNIVIEDLICGPGHGISIGSLGRENSRAEVSYVHVNGAKFIDTQNGLRIKTWQGGSGMASHIIYENVEMINSENPILINQFYCTSASACQNQRSAVQIQDVTYKNIRGTSATAAAIQLKCSDSMPCKDIKLSDISLKLTSGKIASCLNDNANGYFSGHVIPACKNLSPSAKRKESKSHKHPKTVMVENMRAYDKGNRTRILLGSRPPNCTNKCHGCSPCKAKLVIVHRIMPQEYYPQRWICSCHGKIYHP
For B2, the “frequency of IgE response” value (patients' plasma IgE; 23 plasma samples, FIG. 40) was “less”, the “plasma IgE binding response” value (patients' plasma IgE; patient #1034) was “very strong reactivity” and the “plasma IgE binding response” value (patients' plasma IgE; patient plasma samples, FIGS. 31-33) was “binds human IgE of some allergic patients; also recorded: lower overall response”. For the same molecule, the “immunological cross-reactivity with Cry j I” value (IgE antibodies; Kawashima et al. (1992)) was “no immunological cross-reactivity”, the “allergic patients with IgE that only reacted with this allergen” value (IgE antibodies) was 14% and the “T cell proliferative response” value ([5]; 9 patients, FIG. 43) was “react”. For the same molecule, the “T cell proliferative response” value ([5]; n=6 patients, FIG. 42) was “respond well”.
